In patent US7268212B2, “Ligand of G protein-coupled receptor protein and DNA thereof” (Takeda Pharmaceutical Company Limited, priority 2001, dated 2007) one finds IC50 data, which are given here for one sequence.

The assay addresses T1, bovine GPR7 (Bos taurus, UniProt Q8MJV3).
T1 construct: expressed in transfected cells; host or cells: CHO cells
T1 sequence (Q8MJV3 1-331): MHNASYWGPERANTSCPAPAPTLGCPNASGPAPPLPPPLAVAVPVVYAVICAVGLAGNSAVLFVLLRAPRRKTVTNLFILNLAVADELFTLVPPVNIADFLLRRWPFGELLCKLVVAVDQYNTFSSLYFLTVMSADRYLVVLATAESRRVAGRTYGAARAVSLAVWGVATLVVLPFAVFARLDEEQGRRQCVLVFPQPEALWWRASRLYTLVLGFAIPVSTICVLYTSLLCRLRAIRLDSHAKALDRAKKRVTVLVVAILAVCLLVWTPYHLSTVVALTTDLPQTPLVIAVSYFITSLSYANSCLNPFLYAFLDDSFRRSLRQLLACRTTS
Briefly: Intracellular cAMP production suppression activity on bovine GPR7-expressed CHO cells. Type of assay: cell-based. Conditions: forskolin-promoted cAMP production; receptor-expressed CHO cells; read-out: IC50 (nM) bovine GPR7, cAMP production inhibition. The procedure: The intracellular cAMP production suppression activity of peptides associated with various GPR7 ligands on CHO cells, in which human GPR7, bovine GPR8, human GPR8, human GPR8, bovine GPR8 and rat GPR7 were expressed, was examined. […] An assay buffer was prepared by adding 20 mM HEPES, pH7.4, 0.1% bovine serum albumin and 0.2 mM 3-isobutyl-1-methylxanthine (Sigma) to Hanks' Balanced Salt Solution (Gibco BRL). The plate incubated overnight was first washed twice with 150 μl of the assay buffer, and then exchanged with 150 μl of the assay buffer, followed by incubation for 30 minutes at 37° C. in 100% air. By adding 4 μM forskolin to the assay buffer, a buffer for sample dilution was prepared and the stock solution (10^−2 M of 10^−3 M) was diluted with the buffer thus obtained to prepare sample solutions in final concentrations of 10^−6 M, 10^−7 M, 10^−8 M, 10^−9 M and 10^−10 M. The plate incubated with the assay buffer for 30 minutes was taken out. After washing twice with the assay buffer, 50 μl of the assay buffer and then 50 μl of the sample solution were added thereto. Each sample was assayed in triplet. […] A difference between the maximum cAMP level and the cAMP level when each sample was added was calculated and the percentage of cAMP production level promoted by forskolin was worked out, which was made the cAMP production inhibition rate.
A general note: Changes in cAMP serve as a functional read-out for many G protein-coupled receptors.

No end group written: not given here.

By IC50 is commonly meant the concentration needed to halve the response being measured. Consider “WYKPTAGQGYYSVGRAAGLLSGFHRSPYA [Trp1-bovine GPR7L(29)]”, for which the IC50 was 1.2 nM.
